The source of these data is article PMC9714576, “Cell-penetrating peptide-conjugated copper complexes for redox-mediated anticancer therapy” (Frontiers in Pharmacology, 2022).

The subject of experiment [1] is HeLa cells. Description: Cell-viability assay (PrestoBlue). The experiment is classed as cell-based, Human. To be noted: 24 h treatment, normalized for Cu concentration, mean ± SD, N ≥ 3. Here is the method:
(§1) Human cancer cells (cervix: HeLa; and breast: MCF7) were obtained from American Type Culture Collection (ATCC, Manassas, VA, United States). Cells were routinely cultured with DMEM (Dulbecco’s modified Eagle’s medium, Invitrogen) for HeLa, and with DMEM/F-12 (Dulbecco’s MEM/Nutrient Mixture F-12 Ham, Invitrogen) for MCF7, both supplemented with 10% heat-inactivated fetal bovine serum (FBS, Invitrogen) at 37°C in a humidified 5% CO2 atmosphere.
(§2) HeLa and MFC7 cells were seeded into a 96-well plate at a cell density of 3·10^3 cells/well in 100 µL of culture medium and allowed to grow overnight. The next day, the C1-C5 complexes were added to cells at a range concentration of 0–200 μM. […] The growth inhibitory effect of the complexes was measured at 24 h using the PrestoBlue Cell Reagent (Life Technologies) assay. […] After 2 h incubation (37°C, 5% CO2), the fluorescence of each well was measured at 572 nm after excitation at 531 nm with a Microplate Reader Victor3 (Perkin Elmer). Cytotoxicity was evaluated by relative cell viability (%) for each sample related to the control well. The IC50 values were calculated from the obtained cell viability results. […] Cells were allowed then to evolve until a total incubation time of 72 h and the cell viability was measured with PrestoBlue®, as beforehand detailed.

The test system of experiment [2] is MCF7 cells. Description: Cell-viability assay (PrestoBlue). The experiment is classed as cell-based, Human. Particulars: MCF7, 24 h treatment, normalized for Cu concentration, mean ± SD, N ≥ 3. Here is the method: as §1, §2
Experiment [3] in a line: Ascorbate consumption experiment (ROS-generation capability, UV-vis). To be noted: ascorbic acid 100 µM, complex 2 µM, 50 mM NaCl/5 mM TRIS-HCl pH 7.2, max 5% DMSO, UV-vis at 265 nm. Here is the method: All the spectra were recorded at room temperature either on an Agilent HP 8453, a Varian Cary 50 Bio, a Varian Cary 60 Bio or a Perkin Elmer Lambda 650 spectrophotometer, using 1 cm quart-cuvettes. Ascorbate consumption experiments were monitored by UV-vis at the maximum absorption band of the ascorbic acid (100 µM) at 265 nm for about 45 min. CuCl2 and the assayed complexes C1-C3 were added at a final concentration of 2 µM in 50 mM NaCl/5 mM TRIS-HCl buffer (pH 7.2), with a maximum of 5% of DMSO.
Prior to biological evaluation, and after proving that the new C2-C5 Cu(II) complexes hold the same metallic core as C1, the impact of the ligand substituents on their catalytic properties, and therefore, ROS-generating capabilities ([Peña et al., 2021]), were confirmed with the two simplest functionalized Cu(II) compounds (C2 and C3), as model compounds bearing oppositely-charged functional moieties. The consumption of ascorbate was measured by UV-vis spectroscopy, monitoring its characteristic absorbance at 265 nm. The correlation of ascorbate consumption with the generation of ROS has proven to be a reliable method to effectively monitor ROS production ([Alies et al., 2013]; [Chassaing et al., 2013]).

`[Cl][Cu][Cl]` [CuCl2, copper(II) chloride]: the IC50 in experiment [1] and in experiment [2] was no less than 200 µM throughout. Besides, in experiment [3], the “Time to (almost) total ascorbate consumption” value is given as roughly 20 min.
